Results on 9 compounds are retold here after ChEMBL document CHEMBL1201862, “PubChem BioAssay data set” (2004).

Assay in all cases: NCI anticancer screen, dose series, 48 h
Assay [1] has as its system NCI-H522.
For assay [2], the system named is MDA-MB-435.
The test system of assay [3] is Malme-3M.
The test system of assay [4] is MOLT-4.
The subject of assay [5] is RPMI-8226.
The subject of assay [6] is M14.
The test system of assay [7] is EKVX.
Assay [8] deals with HCC 2998.
The subject of assay [9] is SK-MEL-5.
Assay [10] concerns HOP-62.
Assay [11] deals with HCT-15.
Assay [12] has as its system U-251.
Assay [13] deals with BT-549.
Assay [14] relates to NCI-H226.
Assay [15] deals with SW-620.
Assay [16] relates to UO-31.
Assay [17] deals with UACC-62.
The subject of assay [18] is LOX IMVI.

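Cells were grown in 96-well plates and exposed to each compound for 48 hours at five concentrations; endpoints were interpolated linearly between bracketing concentrations, or set to the highest concentration if not reached. Abbreviation: GI50, concentration required for 50% inhibition of growth.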 Active and inactive are the calls of the source. Rule as the data show it: active = GI50 up to about 1.1 µM and inactive = higher.

Turning to `COc1ccccc1C1SCC(=O)N1c1ccc(-c2ccc(-n3c(-c4ccccc4)nc4ccccc4c3=O)cc2)cc1` (centres undefined), the GI50 in assay [1], in assay [2], in assay [3], in assay [4], in assay [5] and in assay [6] was > 100 µM (inactive) throughout. The GI50 in assay [7] was > 100 µM (inactive); in assay [8] it was > 100 µM (inactive); in assay [9], > 100 µM (inactive); in assay [10], > 100 µM (inactive); in [11], over 100 µM; in assay [12] it was > 100 µM (inactive). The GI50 in assay [13] is > 100 µM (inactive); in assay [14], > 100 µM (inactive); in assay [15], > 100 µM (inactive); in assay [16], 29.9 µM (inactive); in assay [17] it was 84.3 µM (inactive); in assay [18] it was > 100 µM (inactive).

As for `O=CN1CCN(CC(O)CN2CCCCC2)CC1` (centres undefined), the GI50 in [1], in [2], in assay [3], in assay [4], in [5] and in [6] was > 100 µM (inactive) in each case. The GI50 in assay [7] is > 100 µM (inactive); in assay [9] it was > 100 µM (inactive); in assay [10], > 100 µM (inactive); in [11] it was over 100 µM; in [12] it was > 100 µM (inactive); in assay [13] it was > 100 µM (inactive). For the same compound, the GI50 in assay [14], in assay [15], in [16], in assay [17] and in assay [18] was > 100 µM (inactive) in each case.

For the compound `CCOC(=O)C(CCSC)(CCSC)C(=O)OCC`, the GI50 in [1], in [2], in [3], in [4], in assay [5] and in assay [6] was > 100 µM (inactive) each time. Moreover, the GI50 is > 100 µM (inactive) in assay [7]; > 100 µM (inactive) in [8]; > 100 µM (inactive) in assay [9]; > 100 µM (inactive) in assay [10]; over 100 µM in assay [11]; > 100 µM (inactive) in assay [12]. Also, the GI50 is > 100 µM (inactive) in assay [13]; > 100 µM (inactive) in [14]; > 100 µM (inactive) in [15]; > 100 µM (inactive) in assay [16]; 18.7 µM (inactive) in [17]; > 100 µM (inactive) in [18].

As to `Clc1ccc2nc3[nH]nc(Cl)c3nc2c1`, the GI50 is 77.8 µM (inactive) in assay [2]; 30.5 µM (inactive) in assay [4]; 47.4 µM (inactive) in [5]; 70.3 µM (inactive) in assay [6]; 16.7 µM (inactive) in [7]; 38.4 µM (inactive) in assay [8]. The GI50 in assay [9] was 27.1 µM (inactive); in [10], 53.5 µM (inactive); in [11], over 100 µM; in assay [12], 60.7 µM (inactive); in assay [13], 28.4 µM (inactive); in assay [15] it was 72.6 µM (inactive). Also, the results for the GI50 in assay [16] and in [17] were 22.8 µM (inactive) and 45.3 µM (inactive), respectively.

With `CC(=O)NC1C(OCC(=O)NCCNc2ccc([N+](=O)[O-])c3[nH]c4ccccc4c(=O)c23)C(O)C(CO)OC1(C)OCc1ccccc1` (centres undefined), the GI50 in assay [1] is > 100 µM (inactive); in assay [2], > 100 µM (inactive); in assay [3] it was > 10 µM (inactive); in assay [4], > 100 µM (inactive); in [5], > 100 µM (inactive); in assay [6], > 100 µM (inactive). Also, the GI50 in assay [7] was > 100 µM (inactive); in [8], > 100 µM (inactive); in assay [9], > 100 µM (inactive); in assay [10], > 100 µM (inactive); in assay [11] it was over 100 µM; in [12], > 100 µM (inactive). Moreover, the GI50 in [13], in [14], in assay [15], in assay [16], in assay [17] and in [18] was > 100 µM (inactive) throughout.

As to `O=[N+]([O-])c1ccc2c(c1)c(OCc1ccccc1)nn2Cc1ccccc1`, the GI50 in assay [1] was 23 µM (inactive); in assay [2], > 100 µM (inactive); in [3], 78.5 µM (inactive); in assay [4], 57 µM (inactive); in assay [5] it was > 100 µM (inactive); in assay [6], > 100 µM (inactive). The GI50 is 58.9 µM (inactive) in assay [8]; 58.2 µM (inactive) in assay [9]; 36.3 µM (inactive) in assay [10]; 53 µM in [11]; 71.8 µM (inactive) in assay [13]; > 100 µM (inactive) in [14]. Also, the GI50 is > 100 µM (inactive) in [15], > 100 µM (inactive) in [16], 80.4 µM (inactive) in assay [17] and > 100 µM (inactive) in [18].

For `CSc1c(C#N)c(=O)n(N)c2c1c(C)nn2-c1ccccc1`, the GI50 in assay [1] is 22.9 µM (inactive); in [2], 30.9 µM (inactive); in assay [3] it was 22.4 µM (inactive); in [4], 27.5 µM (inactive); in assay [5], 21.9 µM (inactive); in assay [6], 35.7 µM (inactive). Moreover, the GI50 in assay [7] is 26.7 µM (inactive); in assay [8], 18.1 µM (inactive); in [9], 15.3 µM (inactive); in assay [11] it was 22.1 µM; in assay [12], 28.1 µM (inactive); in assay [13], 30.1 µM (inactive). For the same compound, the GI50 is 24.8 µM (inactive) in [14]; 35.9 µM (inactive) in assay [15]; 18.5 µM (inactive) in [16]; 22 µM (inactive) in assay [17]; 20.6 µM (inactive) in assay [18].

As to `COC(=O)c1cc2c(cc1CC1Cc3cc4c(cc3C1=O)CCC4)CCC2` (centres undefined), the GI50 in assay [1] was 34.1 µM (inactive); in assay [2], 24.7 µM (inactive); in assay [3], 53 µM (inactive); in assay [4], 13.5 µM (inactive); in assay [5], 25 µM (inactive); in [6], 66.8 µM (inactive). Also, the GI50 in [7] was 67.5 µM (inactive); in [8], 43.7 µM (inactive); in assay [9], 17.6 µM (inactive); in [10], > 100 µM (inactive); in assay [11], 36.3 µM; in assay [12] it was 46 µM (inactive). Further, the GI50 in [13] was 40.1 µM (inactive); in assay [14], 56.6 µM (inactive); in assay [15], 29.4 µM (inactive); in assay [16] it was > 100 µM (inactive); in assay [17], 47.2 µM (inactive); in assay [18], 41.4 µM (inactive).

For the compound `CN(c1ccc(Cl)cc1)S(=O)(=O)c1ccccc1`, the GI50 in assay [1] is 76.7 µM (inactive); in [2], 41.3 µM (inactive); in assay [3], > 100 µM (inactive); in [4], 28 µM (inactive); in assay [5], 42.3 µM (inactive); in [6] it was 45.1 µM (inactive). For the same compound, the GI50 is 37.6 µM (inactive) in assay [7]; 84.1 µM (inactive) in [8]; 18.7 µM (inactive) in assay [9]; 71.9 µM (inactive) in assay [10]; 52.2 µM in assay [11]; 42.9 µM (inactive) in [12]. Further, the GI50 in assay [13] was 32 µM (inactive); in assay [14], 30.4 µM (inactive); in [15], 85.5 µM (inactive); in assay [16], 42 µM (inactive); in assay [17], 48.4 µM (inactive); in [18], 42.8 µM (inactive).
